The text below walks through data of ChEMBL document CHEMBL2029319, “Kappa agonist CovX-Bodies” (Bioorg Med Chem Lett, 2012).

Kappa-type opioid receptor (Homo sapiens, UniProt P41145), sequence (P41145 whole entry): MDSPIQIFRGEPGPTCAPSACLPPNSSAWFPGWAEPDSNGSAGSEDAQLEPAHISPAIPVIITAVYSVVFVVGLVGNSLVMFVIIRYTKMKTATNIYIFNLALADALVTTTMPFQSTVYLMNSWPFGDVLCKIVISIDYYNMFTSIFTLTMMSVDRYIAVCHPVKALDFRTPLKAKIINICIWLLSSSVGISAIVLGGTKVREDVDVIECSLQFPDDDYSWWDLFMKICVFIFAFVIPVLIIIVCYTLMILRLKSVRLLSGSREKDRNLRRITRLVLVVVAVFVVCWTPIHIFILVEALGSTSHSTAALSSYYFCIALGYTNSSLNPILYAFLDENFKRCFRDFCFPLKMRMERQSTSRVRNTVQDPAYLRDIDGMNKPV

The first experiment concerns the target Kappa-type opioid receptor (Homo sapiens, UniProt P41145). The experiment can be described thus: Agonist activity at recombinant kappa opioid receptor expressed in human U2OS cells coexpressing beta arrestin/EA complex assessed as beta arrestin recruitment after 60 mins by luminescence spectrophotometry. It counts as functional, cell-based.
The term EC50 denotes the concentration giving half of the maximal effect. As to `CC(C)C[C@@H](NC(=O)[C@@H](Cc1ccccc1)NC(=O)[C@H](N)Cc1ccccc1)C(=O)N[C@H](CCCCN)C(=O)NCC(=O)NCCSC1CC(=O)N(CCC(=O)NCCOCCOCCC(=O)Nc2ccc(CCC(=O)N3CCC3=O)cc2)C1=O` (stereo partly drawn), the EC50 was determined as 1480 nM.
As for `CC(C)C[C@@H](NC(=O)[C@@H](Cc1ccccc1)NC(=O)[C@H](N)Cc1ccccc1)C(=O)N[C@H](CCCCN)C(=O)NCC(=O)NCC(=O)NCC(=O)NCCSC1CC(=O)N(c2ccc(CCC(=O)N3CCC3=O)cc2)C1=O` (stereo partly drawn), the EC50 came out at 5 nM.
`CC(C)C[C@@H](NC(=O)[C@@H](Cc1ccccc1)NC(=O)[C@H](N)Cc1ccccc1)C(=O)N[C@H](CCCCN)C(N)=O`: the EC50 is 3 nM.
The same measure, in the same setting: the same measure for `CC(C)C[C@@H](NC(=O)[C@@H](Cc1ccccc1)NC(=O)[C@H](N)Cc1ccccc1)C(=O)N[C@H](CCCCN)C(=O)NCC(=O)NCCSC1CC(=O)N(c2ccc(CCC(=O)N3CCC3=O)cc2)C1=O` (stereo partly drawn): 3 nM.
For the compound `CC(C)C[C@@H](NC(=O)[C@@H](Cc1ccccc1)NC(=O)[C@H](N)Cc1ccccc1)C(=O)N[C@H](CCCCN)C(=O)NCC(=O)NCC(=O)NCC(=O)NCCSC1CC(=O)N(CCC(=O)NCCOCCOCCC(=O)Nc2ccc(CCC(=O)N3CCC3=O)cc2)C1=O` (stereo partly drawn), the EC50 is 176 nM.

In a further experiment the target is Kappa-type opioid receptor (Cavia porcellus, UniProt P41144). The experiment can be described thus: Agonist activity at kappa opioid receptor in guinea pig ileum assessed as electric field-stimulated response. It counts as functional, tissue-based.
Kappa-type opioid receptor (Cavia porcellus, UniProt P41144), sequence (P41144 whole entry): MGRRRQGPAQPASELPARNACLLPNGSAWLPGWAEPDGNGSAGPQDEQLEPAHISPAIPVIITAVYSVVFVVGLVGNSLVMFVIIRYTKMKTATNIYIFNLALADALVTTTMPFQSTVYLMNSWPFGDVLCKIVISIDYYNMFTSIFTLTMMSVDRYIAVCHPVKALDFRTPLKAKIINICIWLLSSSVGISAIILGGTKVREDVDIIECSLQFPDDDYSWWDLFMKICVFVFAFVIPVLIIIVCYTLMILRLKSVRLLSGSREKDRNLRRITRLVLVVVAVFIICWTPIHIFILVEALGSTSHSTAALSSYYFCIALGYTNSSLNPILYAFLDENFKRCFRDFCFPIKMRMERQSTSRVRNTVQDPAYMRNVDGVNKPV
In the case of `CC(C)C[C@@H](NC(=O)[C@@H](Cc1ccccc1)NC(=O)[C@H](N)Cc1ccccc1)C(=O)N[C@H](CCCCN)C(N)=O`, the EC50 was determined as 0.22 nM.
Consider `CC(C)C[C@@H](NC(=O)[C@@H](Cc1ccccc1)NC(=O)[C@H](N)Cc1ccccc1)C(=O)N[C@H](CCCCN)C(=O)N1CCC(CC(=O)NCCOCCOCC(=O)NCC(=O)NCc2cn(-c3ccc(C(=O)Nc4ccc(CCC(=O)N5CCC5=O)cc4)cc3)nn2)CC1`, for which the EC50 came to 0.2 nM.
As for `CC(C)C[C@@H](NC(=O)[C@@H](Cc1ccccc1)NC(=O)[C@H](N)Cc1ccccc1)C(=O)N[C@H](CCCCN)C(=O)N1CCC(C(=O)NCCOCCOCC(=O)NCC(=O)NCc2cn(-c3ccc(C(=O)Nc4ccc(CCC(=O)N5CCC5=O)cc4)cc3)nn2)CC1`, the EC50 was 0.1 nM.
